Values of other authors, collected in patent publication US11672863B2, “Enhanced solubility drug-containing formulations” (United Therapeutics Corporation, priority 2017, dated 2023).
Where a name gives a salt, the structure may show the parent alone.

Conditions: in water between pH 1.8 and 6

solubility: 40 to 50 mg/mL
SMILES: CCCCN1CCCCC1C(=O)Nc1c(C)cccc1C (stereo not shown) [bupivacaine hydrochloride monohydrate]
